Values joined by “and” are separate entries in the source; they are usually repeats but may differ in a detail not shown here. Equal values may be shown once. “Also recorded” adds a separate entry of the source. Where a name gives a salt, the structure may show the parent alone. Read-outs that look alike come from different tables or passages of the source.
Legend:
[1] = target: T1, recombinant human MAO-B (Homo sapiens, UniProt P27338); test: Cell-free Fluorescent Monoamine Oxidase A&B Detection Assay, MAO-B; format: biochemical; conditions: for IC50: read-out: IC50 MAO-B
T1 sequence (P27338 1-520): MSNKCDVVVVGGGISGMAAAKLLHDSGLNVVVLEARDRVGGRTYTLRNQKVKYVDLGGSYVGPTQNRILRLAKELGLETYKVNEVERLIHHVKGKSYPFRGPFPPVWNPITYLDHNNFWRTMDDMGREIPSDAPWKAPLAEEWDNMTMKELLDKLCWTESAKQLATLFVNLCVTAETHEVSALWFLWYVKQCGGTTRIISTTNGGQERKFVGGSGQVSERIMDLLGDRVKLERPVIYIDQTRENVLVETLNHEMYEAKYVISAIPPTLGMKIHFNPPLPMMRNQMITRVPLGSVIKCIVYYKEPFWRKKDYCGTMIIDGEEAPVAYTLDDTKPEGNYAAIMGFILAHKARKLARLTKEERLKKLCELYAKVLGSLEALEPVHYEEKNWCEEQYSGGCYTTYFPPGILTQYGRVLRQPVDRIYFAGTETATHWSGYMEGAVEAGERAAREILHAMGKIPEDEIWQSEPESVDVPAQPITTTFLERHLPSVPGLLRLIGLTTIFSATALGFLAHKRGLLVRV
Experimental: (§1) The assay was repeated to confirm data.
(§2) MAO B specific inhibitory activity and selectivity over MAO A is assayed using a commercial kit [Fluoro MAO A and B detection kit (Cell Technology Inc™)]. This kit uses a non-fluorescent detection reagent to measure H2O2 released from the conversion of an MAO A and MAO B substrate specific to its aldehyde. Furthermore, H2O2 oxidizes the detection reagent in a 1:1 stoichiometry to produce a fluorescent product (resorufin). […] This information is then provided to the medicinal chemists to help direct synthesis of subsequent iterations.

[2] = target: T2, recombinant human MAO-A (Homo sapiens, UniProt P21397); test: Cell-free Fluorescent Monoamine Oxidase A&B Detection Assay, MAO-A; format: biochemical; conditions: for IC50: read-out: IC50 MAO-A
T2 sequence (P21397 1-527): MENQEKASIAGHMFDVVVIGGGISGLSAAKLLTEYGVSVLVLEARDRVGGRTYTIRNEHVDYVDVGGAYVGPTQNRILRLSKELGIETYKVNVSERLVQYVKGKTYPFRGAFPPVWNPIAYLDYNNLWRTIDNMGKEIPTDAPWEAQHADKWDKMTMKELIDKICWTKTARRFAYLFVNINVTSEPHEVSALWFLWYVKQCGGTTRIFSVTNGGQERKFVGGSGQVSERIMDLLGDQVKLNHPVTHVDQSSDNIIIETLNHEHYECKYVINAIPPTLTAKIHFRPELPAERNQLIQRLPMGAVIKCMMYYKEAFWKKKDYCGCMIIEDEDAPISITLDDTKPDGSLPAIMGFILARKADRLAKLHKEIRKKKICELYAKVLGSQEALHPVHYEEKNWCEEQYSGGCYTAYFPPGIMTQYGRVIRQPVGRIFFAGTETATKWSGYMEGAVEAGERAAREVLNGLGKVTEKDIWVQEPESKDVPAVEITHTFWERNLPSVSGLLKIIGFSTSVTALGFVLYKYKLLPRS
Experimental: as §1, §2

[3] = tested on: Wildtype Madin-Darby canine cells (MDCK-WT); test: in vitro BBB permeability in MDCK-WT cells; conditions: MDCK-WT; one-way ANOVA, Dunnett's test
From the text: (§3) Wildtype Madin-Darby canine cells (MDCK-WT) were used to predict CNS permeability of compounds PS-RG0103, PS-RG0216, PS-RG0245 and PS-AD0191. […] J Allergy Clin Immunol. 1990; 86(6 pt 2): p. 1025-8.
(§4) Novel MAO B inhibitors selected based on the above screening program will be screened using an in vitro model of blood brain barrier (BBB). Madin-Darby canine kidney (MDCK-WT) and MDCK cells transfected with the human MDR1 gene (MDCK-MDR1) are well established in vitro models used to predict a compound's ability to permeate the blood brain barrier (BBB). […] Apparent permeability (Papp), Efflux ratio (Papp B-A/Papp A-B), as well as the Net flux ratio (Efflux ratioMDCK-MDR1/Efflux ratioMDCK-WT) can be calculated to identify compound BBB permeability and identify compounds that are substrates of P-gp.

[4] = in vitro BBB permeability in MDCK-WT cells; conditions: dog, MDCK
From the text: as §3, §4

[5] = tested on: Madin Darby canine kidney (MDCK-I) cells; test: TEER in MDCK-I cells; format: cell-based; conditions: for 144-hour barrier (TEER) vs control: MDCK-I, treated at 72 hours; for effect on TEER (MAO A, B, AB inhibitors): no concentration given
Experimental: In each case, TEER was measured every 48 hours after treatment.
Transwell cultures were treated at 72 hours (T) post-cell plating.
Transepithelial Resistance (TER) is a common method to screen for barrier integrity. […] Fluorescein isothiocyanate conjugated 10 kD dextran (Invitrogen™) will be added to the apical Transwell™ compartment, fixed, and examined for dextran permeation (Umeda et al., 2006).
Amphiregulin (AR) is an EGFR binding ligand and may play a pivotal role in the previously described signaling axis (see FIGS. 15-17). […] (ii) GI [intestinal epithelial cell (IEC)] and (iii) classical [Madin-Darby canine kidney (MDCK-1)].

[6] = stability assay in mouse liver microsomes; conditions: after 60 minutes at room temperature
[7] = stability assay in human liver microsomes; conditions: after 60 minutes at room temperature
[8] = hepatocytes, 1 h
[9] = tested on: IL-8 protein expression in Caco-2 cells; test: IL-8 protein expression in LPS- and TNFα-treated Caco-2 cells; format: cell-based, human; conditions: Caco-2, 1 μg/mL LPS or 50 ng/mL TNFα + 20 μM compound, 4, 12 or 24 h
Experimental: Caco-2 cells were seeded at 83300 cells/cm^2 on a polystyrene 96-well plate in DMEM medium (#10313-021, Gibco™) containing 10% FBS. On day 5 after seeding, wells were replaced with fresh media containing 2.5% FBS. […] Supernatants of the treated cells were analyzed for pro- and anti-inflammatory cytokine proteins using the Human Proinflammatory 7-Plex Ultra-Sensitive Kit™ (K15008C, MSD™) measured by the Sector Imager 2400A (MSD™). Left panel: Absolute concentrations of IL-8 protein in supernatants of cells treated with control (media only), 1 μg/mL LPS or 50 ng/mL TNFα. […] Values were determined by subtracting supernatant cytokine concentrations of control from supernatant cytokine concentrations of treated cells. Results are expressed as mean±standard deviation (n=3).

[10] = 14 week study, cited from earlier work
[11] = cell-free, recombinant human MAO-A
[12] = cell-free, recombinant human MAO-A, read-out: IC90 MAO-A
[13] = cell-free, recombinant human MAO-A, hydrochloride

C[C@H](Cc1ccc(OCc2ccc(Cl)c(Cl)c2)cc1)N(C)CC(=O)O.Cl [PS-RG0245, (R)—N-(1-(4-((3,4-dichlorobenzyl)oxy)phenyl)propan-2-yl)-N-methylglycine hydrochloride]
IC90 [1]: 0.873 µM | IC50 [1]: 0.21 µM and 0.207 µM | IC50 [2, 11]: 17.2 µM and 17.1 µM | IC90 [2, 12]: 99.8 µM | permeability compared with cetirizine [3]: not different from cetirizine | Papp [4]: 3.6 ± 0.2 ×10⁻⁶ cm/s

CN(CC(=O)O)[C@H](CC#N)Cc1ccc(OCc2ccc(Cl)c(Cl)c2)cc1.Cl [PS-AD0191, (S)—N-(1-cyano-3-(4-((3,4-dichlorobenzyl)oxy)phenyl)propan-2-yl)-N-methylglycine]
IC90 [1]: 1.03 µM | IC50 [1]: 0.3 µM and 0.302 µM | IC50 [2, 11]: 54.6 µM | IC90 [2, 12]: 424 µM | Papp [4]: 7.9 ± 1.4 ×10⁻⁶ cm/s

C#CCN(C)Cc1ccccc1 [pargyline]
144-hour barrier (TEER) vs control ([5]; 5 μm inhibitor): increased over control | 144-hour barrier (TEER) vs control ([5]; 40 μm inhibitor): increased over control | effect on TEER (MAO A, B, AB inhibitors) [5]: increased TEER

C[C@H](Cc1ccc(OCc2cccc(Cl)c2)cc1)N(C)CC(=O)O [PS-RG0103, N—((R)-(1-(4-(3-chlorobenzyloxy)phenyl)propan-2-yl)(methyl))glycine hydrochloride]
IC90 [1]: 2.27 µM | IC50 [1]: 0.27 µM and 0.275 µM | compound remaining in mouse microsome [6]: 69% | compound remaining in human microsome [7]: 93% | IC50 MAO-A (μM) [2, 13]: no activity on MAO-A; also recorded: Does not | compound remaining, mouse hepatocyte stability [8]: 101% | Papp [4]: 2.2 ± 0.2 ×10⁻⁶ cm/s

C[C@H](Cc1ccc(OCc2ccc(Br)c(Cl)c2)cc1)N(C)CC(=O)O.Cl [PS-RG0216, (R)—N-(1-(4-((4-bromo-3-chlorobenzyl)oxy)phenyl)propan-2-yl)-N-methylglycine hydrochloride]
IC90 [1]: 1.02 µM | IC50 [1]: 0.2 µM and 0.203 µM | compound remaining in mouse microsome [6]: 74% | compound remaining in human microsome [7]: 91% | IC50 MAO-A (μM) [2, 13]: no activity on MAO-A; also recorded: Does not | compound remaining, mouse hepatocyte stability [8]: 100% | IL-8 protein expression [9]: attenuation of IL-8 protein expression | permeability compared with cetirizine [3]: not different from cetirizine | Papp [4]: 1.2 ± 0.1 ×10⁻⁶ cm/s

CN(CC(=O)O)C(=O)C=C1COc2cc(Oc3ccccc3)ccc21 [PS-RG0080]
IC90 MAO-B (μM) [1]: Does not | IC50 MAO-A (μM) [2, 11]: Does not

CN(CC(=O)O)Cc1cc(=O)oc2cc(Oc3ccccc3)ccc12.Cl [PS-RG0097]
IC90 MAO-B (μM) [1]: Does not | IC50 MAO-A (μM) [2, 11]: Does not

C[C@H](Cc1ccc(OCc2cc(Cl)ccc2Cl)cc1)N(C)CC(=O)O.Cl [PS-AD0064, (R)—N-(1-(4-((2,5-dichlorobenzyl)oxy)phenyl)propan-2-yl)-N-methylglycine hydrochloride]
IC90 [1]: 25.8 µM | IC50 [1]: 1.27 µM | IC50 MAO-A (μM) [2, 11]: Does not

CN(CC(=O)O)[C@H](CC#N)Cc1ccc(OCc2ccccc2)cc1.Cl [PS-AD0186, (S)—N-(1-(4-(benzyloxy)phenyl)-3-cyanopropan-2-yl)-N-methylglycine]
IC90 [1]: 4.44 µM | IC50 [1]: 0.56 µM | IC50 MAO-A (μM) [2, 11]: Does not

C#CCN(C)CCCOc1ccc(Cl)cc1Cl [Clorgyline]
IC90 ([2]; read-out: IC90 MAO-A (μM)): 0.00624 µM | 144-hour barrier (TEER) vs control ([5]; 5 μm inhibitor): significantly reduced the barrier | 144-hour barrier (TEER) vs control ([5]; 40 μm inhibitor): significantly reduced the barrier | effect on TEER (MAO A, B, AB inhibitors) [5]: generally reduced TEER

COC(=O)[C@H](Cc1ccc(OCc2cccc(Cl)c2)cc1)N(C)CC(=O)O [PS-RG0122, N-Carboxymethyl-N-methyl-O-3-chlorobenzyloxytyrosine methyl ester hydrochloride]
IC90 [1]: 19.1 µM | IC50 [1]: 1.43 µM | IC50 MAO-A (μM) [2, 11]: Does not

O=C(NCCN1CCOCC1)c1ccc(Cl)cc1 [moclobemide]
144-hour barrier (TEER) vs control ([5]; 5 μm inhibitor): increased over control | barrier integrity at low doses ([5]; low doses): small increase in the barrier integrity | effect on TEER (MAO A, B, AB inhibitors) [5]: generally reduced TEER

CN(CC(=O)O)[C@H](CCl)Cc1ccc(OCc2ccccc2)cc1 [PS-AD0095, (S)—N-(1-(4-(benzyloxy)phenyl)-3-chloropropan-2-yl)-N-methylglycine]
IC90 [1]: 13.4 µM | IC50 [1]: 1.4 µM | IC50 MAO-A (μM) [2, 11]: Does not

C#CCN(C)[C@H](C)Cc1ccccc1 [L-selegiline]
total body fat reduction compared to control rats [10]: 30% | food intake vs untreated controls ([10]; rats): comparable | lower weight gain compared to untreated controls ([10]; rats): 14% | plasma leptin levels reduction ([10]; rats): 41%

CN(CCc1ccccc1)CC(=O)O.Cl [PS-RG0020]
IC90 MAO-B (μM) [1]: Does not | IC50 MAO-A (μM) [2, 11]: Does not

C[C@H](Cc1ccc(OCC(=O)O)cc1)N(C)CC(=O)O.Cl [PS-RG0219]
IC90 MAO-B (μM) [1]: Does not | IC50 MAO-A (μM) [2, 11]: Does not
